Measured values taken from US8906909B2 (Curis, Inc., priority 2009, dated 2014).

How the values were obtained:
PI3Kα (p110α/p85α) = target: T1, PI3Kα (p110α/p85α) (Homo sapiens, UniProt P42336); test: PI3Kα fluorescence polarization assay; format: biochemical; details: 10 μM ATP
T1 construct: N-terminal histidine-tagged recombinant full-length human p110α; His tag (N); made in house; host or cells: Baculovirus-infected Sf9 insect cells
Experimental: (a) An In Vitro Assay which Determines the Ability of a Test Compound to Inhibit PI3Kα.
Activity of PI3Kα was measured using fluorescence polarization assay. PI3Kα, a complex of N-terminal histidine-tagged recombinant full-length human p110α and untagged recombinant full length human p85α were coexpressed in a Baculovirus infected Sf9 cell expression system. (GenBank Accession No. for p110α, U79143; for p85α, XM—043865). The proteins are purified by one-step affinity chromatography using glutathione-agarose. A competition assay was performed to measure the amount of PIP3 generated from PIP2 in the presence of purified recombinant PI3Kα (p110α/p85α). PI3K a was incubated with 10 μM PIP2 substrate in the reaction buffer (20 mM HEPES, pH 7.5, 10 mM NaCl, 4 mM MgCl2, 2 mM DTT, 10 μM ATP and 1% DMSO) for 1 hour at 30° C. The reaction product was then mixed with a PIP3 detector protein and the fluorescent PIP3 probe. Polarization (mP) values decrease as fluorescent probe binding to the PIP3 detector is displaced by PIP3 produced by enzymatic activity and the amount of unbound fluorescent probe in the mixture increases. Polarization degrees (mP) value was determined using microplate reader with background subtraction.

[1] = test system: HDACs (HeLa cell nuclear extracts); test: HDAC enzymatic activity, Biomol Color de Lys system; format: biochemical
Outline: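 IC50 from sigmoidal dose-response fits of fluorescence (Ex 350–380, Em 440–460 nm). Compounds in DMSO dilution series incubated 1 h at 25 °C with HeLa nuclear extract HDACs and colorimetric substrate, pH 8.0 Tris/Cl buffer with NaCl, KCl, MgCl2, before developer termination.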

HCC1806 cells = test: Cell proliferation assay Method B, HCC1806; format: cell-based; details: Homo sapiens, Breast, 72 hours, read-out: antiproliferative activity IC50, HCC1806
Experimental: (§1) Cancer cell lines were plated at 5,000 to 10,000 per well in 96-well flat bottomed plates with various concentration of compounds. The cells were incubated with compounds for 72 hours in the presence of 0.5% of fetal bovine serum. Growth inhibition was accessed by adenosine triphosphate (ATP) content assay using Promega CellTiter-Glo kit. Promega CellTiter-Glo kit is an ATP monitoring system based on firefly luciferase. Briefly, 16 μl of mammalian cell lysis and substrate solution was added to 84 μl of culture medium per well to lyse the cells and stabilize the ATP. The mixture was shaken and incubated for 30 minutes and subsequently the luminescence was measured.

SKBr3 cells = test: Cell proliferation assay Method B, SKBr3; format: cell-based; details: Homo sapiens, SK-BR-3, Breast, 72 hours, read-out: antiproliferative activity IC50, SKBr3
Experimental: as §1

BT474 cells = test: Cell proliferation assay Method B, BT474; format: cell-based; details: Homo sapiens, BT-474; Breast; Method B; 72 hours; read-out: antiproliferative activity IC50, BT474
Outline: (§2)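 Serum-reduced (0.5% FBS) proliferation format: compounds at various concentrations, 72 h incubation, then CellTiter-Glo ATP luminescence as the growth-inhibition measure.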

MDA-MB-361 cells = test: Cell proliferation assay Method B, MDA-MB-361; format: cell-based; details: Homo sapiens, Breast, 72 hours, read-out: antiproliferative activity IC50, MDA-MB-361
Experimental: as §1

MDA-MB-453 cells = test: Cell proliferation assay Method B, MDA-MB-453; format: cell-based; details: Homo sapiens, Breast, 72 hours, read-out: antiproliferative activity IC50, MDA-MB-453
Experimental: as §1

MCF-7 cells = test: Cell proliferation assay Method B, MCF-7; format: cell-based; details: Homo sapiens, MCF7, Breast, 72 hours, read-out: antiproliferative activity IC50, MCF-7
Experimental: as §1

T47D cells = test: Cell proliferation assay Method B, T47D; format: cell-based; details: Homo sapiens, Breast, 72 hours, read-out: antiproliferative activity IC50, T47D
Experimental: as §1

ZR-75-1 cells = test: Cell proliferation assay Method B, ZR-75-1; format: cell-based; details: Homo sapiens, Breast, 72 hours, read-out: antiproliferative activity IC50, ZR-75-1
Experimental: as §1

MOLT-4 cells = test: Cell proliferation assay Method B, MOLT-4; format: cell-based; details: Homo sapiens, ALL, 72 hours, read-out: antiproliferative activity IC50, MOLT-4
Experimental: as §1

HL-60 cells = test: Cell proliferation assay Method B, HL-60; format: cell-based; details: Homo sapiens, AML, 72 hours, read-out: antiproliferative activity IC50, HL-60
Experimental: as §1

U937 cells = test: Cell proliferation assay Method B, U937; format: cell-based; details: Homo sapiens, U-937, AML, 72 hours, read-out: antiproliferative activity IC50, U937
Experimental: as §1

THP-1 cells = test: Cell proliferation assay Method B, THP-1; format: cell-based; details: Homo sapiens, AML, 72 hours, read-out: antiproliferative activity IC50, THP-1
Experimental: as §1

MV-4-11 cells = test: Cell proliferation assay Method B, MV-4-11; format: cell-based; details: Homo sapiens, MV4-11, AML, 72 hours, read-out: antiproliferative activity IC50, MV-4-11
Experimental: as §1

Pfeiffer cells = test: Cell proliferation assay Method B, Pfeiffer; format: cell-based; details: Homo sapiens, NHL, 72 hours, read-out: antiproliferative activity IC50, Pfeiffer
Experimental: as §1

Raji cells = test: Cell proliferation assay Method B, Raji; format: cell-based; details: Homo sapiens, NHL, 72 hours, read-out: antiproliferative activity IC50, Raji
Experimental: as §1

Daudi cells = test: Cell proliferation assay Method B, Daudi; format: cell-based; details: Homo sapiens, NHL, 72 hours, read-out: antiproliferative activity IC50, Daudi
Experimental: as §1

K562 cells = test: Cell proliferation assay Method B, K562; format: cell-based; details: Homo sapiens, CML, 72 hours, read-out: antiproliferative activity IC50, K562
Experimental: as §1

RPMI-8226 cells = test: Cell proliferation assay Method B, RPMI-8226; format: cell-based; details: Homo sapiens, Multiple Myeloma, Method B, 72 hours, read-out: antiproliferative activity IC50, RPMI-8226
Outline: as §2

ARH77 cells = test: Cell proliferation assay Method B, ARH77; format: cell-based; details: Homo sapiens, ARH-77, Multiple Myeloma, 72 hours, read-out: antiproliferative activity IC50, ARH77
Experimental: as §1

L1210 cells = test: Cell proliferation assay Method B, L1210; format: cell-based; details: Mouse LL, 72 hours, read-out: antiproliferative activity IC50, L1210
Experimental: as §1

P388 D1 cells = test: Cell proliferation assay Method B, P388 D1; format: cell-based; details: P388D1, Mouse Lymphoma, 72 hours, read-out: antiproliferative activity IC50, P388 D1
Experimental: as §1

MDA-MB-231 cells = test: Cell proliferation assay Method B, MDA-MB-231; format: cell-based; details: Homo sapiens, Breast, Method B, 72 hours, read-out: antiproliferative activity IC50, MDA-MB-231 (second listing, r32)
Experimental: as §1

HCC1500 cells = test: Cell proliferation assay Method B, HCC1500; format: cell-based; details: Breast, 72 hours, read-out: antiproliferative activity IC50, HCC1500
Experimental: as §1

UACC-893 cells = test: Cell proliferation assay Method B, UACC-893; format: cell-based; details: Homo sapiens, Breast, 72 hours, read-out: antiproliferative activity IC50, UACC-893
Experimental: as §1

MDA-MB-468 cells = test: Cell proliferation assay Method B, MDA-MB-468; format: cell-based; details: Homo sapiens, Breast, Method B, 72 hours, read-out: antiproliferative activity IC50, MDA-MB-468
Experimental: as §1

SUP-B15 cells = test: Cell proliferation assay Method B, SUP-B15; format: cell-based; details: Homo sapiens, ALL, 72 hours, read-out: antiproliferative activity IC50, SUP-B15
Experimental: as §1

MEG-01 cells = test: Cell proliferation assay Method B, MEG-01; format: cell-based; details: Homo sapiens, CML, 72 hours, read-out: antiproliferative activity IC50, MEG-01
Experimental: as §1

T1 sequence (P42336 whole entry): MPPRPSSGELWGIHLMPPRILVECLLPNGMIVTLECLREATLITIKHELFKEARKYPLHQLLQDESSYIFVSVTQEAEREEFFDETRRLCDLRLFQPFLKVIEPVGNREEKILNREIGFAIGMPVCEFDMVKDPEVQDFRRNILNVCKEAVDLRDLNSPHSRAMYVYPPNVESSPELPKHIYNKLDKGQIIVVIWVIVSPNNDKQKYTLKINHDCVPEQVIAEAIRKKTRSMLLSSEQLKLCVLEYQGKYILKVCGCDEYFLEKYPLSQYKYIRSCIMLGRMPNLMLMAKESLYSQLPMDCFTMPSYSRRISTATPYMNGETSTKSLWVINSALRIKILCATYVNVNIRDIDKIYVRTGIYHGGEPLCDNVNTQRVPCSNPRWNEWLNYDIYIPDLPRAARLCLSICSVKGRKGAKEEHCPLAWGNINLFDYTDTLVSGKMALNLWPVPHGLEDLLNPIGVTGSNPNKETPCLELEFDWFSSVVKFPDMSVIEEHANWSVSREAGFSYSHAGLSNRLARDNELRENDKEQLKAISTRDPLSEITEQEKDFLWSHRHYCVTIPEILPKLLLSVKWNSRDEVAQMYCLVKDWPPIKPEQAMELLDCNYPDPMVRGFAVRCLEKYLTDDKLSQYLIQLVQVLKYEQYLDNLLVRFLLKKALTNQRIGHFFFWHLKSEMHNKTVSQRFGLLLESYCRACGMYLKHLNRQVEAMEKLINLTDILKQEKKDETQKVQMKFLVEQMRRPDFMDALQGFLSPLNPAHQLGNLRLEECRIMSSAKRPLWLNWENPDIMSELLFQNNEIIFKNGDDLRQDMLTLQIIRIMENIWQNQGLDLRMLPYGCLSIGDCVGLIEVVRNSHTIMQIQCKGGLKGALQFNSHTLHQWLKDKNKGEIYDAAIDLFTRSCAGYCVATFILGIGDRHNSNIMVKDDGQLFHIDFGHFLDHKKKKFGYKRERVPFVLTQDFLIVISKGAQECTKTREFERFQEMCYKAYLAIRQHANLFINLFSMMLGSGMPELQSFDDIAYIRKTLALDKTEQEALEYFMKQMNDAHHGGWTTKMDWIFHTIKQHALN
T1 sequence (P27986 whole entry partner): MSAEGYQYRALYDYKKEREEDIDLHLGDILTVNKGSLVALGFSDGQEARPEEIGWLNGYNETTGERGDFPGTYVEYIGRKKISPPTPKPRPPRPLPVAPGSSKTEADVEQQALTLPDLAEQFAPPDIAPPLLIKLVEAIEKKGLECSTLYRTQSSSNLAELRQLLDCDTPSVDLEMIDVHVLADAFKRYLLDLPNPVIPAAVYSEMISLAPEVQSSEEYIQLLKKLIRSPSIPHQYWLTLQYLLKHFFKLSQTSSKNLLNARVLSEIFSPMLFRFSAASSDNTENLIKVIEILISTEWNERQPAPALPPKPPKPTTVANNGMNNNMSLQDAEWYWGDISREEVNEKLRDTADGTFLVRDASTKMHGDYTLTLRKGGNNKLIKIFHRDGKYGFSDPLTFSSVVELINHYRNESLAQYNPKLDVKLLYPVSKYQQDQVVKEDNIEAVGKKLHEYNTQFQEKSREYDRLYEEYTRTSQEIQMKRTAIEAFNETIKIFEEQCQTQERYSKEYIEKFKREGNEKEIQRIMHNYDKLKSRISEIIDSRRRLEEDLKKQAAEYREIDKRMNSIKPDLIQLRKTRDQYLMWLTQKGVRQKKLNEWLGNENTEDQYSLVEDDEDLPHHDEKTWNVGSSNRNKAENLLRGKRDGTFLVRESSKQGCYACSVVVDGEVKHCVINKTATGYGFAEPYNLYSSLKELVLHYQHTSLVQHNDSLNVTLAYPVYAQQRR

Row | Structure (SMILES) | IC50 (PI3Kα (p110α/p85α)) | IC50 [1] | melting point | IC50 (HCC1806 cells) | IC50 (SKBr3 cells) | IC50 (BT474 cells) | IC50 (MDA-MB-361 cells) | IC50 (MDA-MB-453 cells) | IC50 (MCF-7 cells) | IC50 (T47D cells) | IC50 (ZR-75-1 cells) | IC50 (MOLT-4 cells) | IC50 (HL-60 cells) | IC50 (U937 cells) | IC50 (THP-1 cells) | IC50 (MV-4-11 cells) | IC50 (Pfeiffer cells) | IC50 (Raji cells) | IC50 (Daudi cells) | IC50 (K562 cells) | further results
1 | CS(=O)(=O)N1CCN(Cc2cc3nc(-c4cccc5c4cnn5CCCCC(=O)NO)nc(N4CCOCC4)c3s2)CC1 [Compound 3, N-hydroxy-5-(4-(6-((4-(methylsulfonyl)piperazin-1-yl)methyl)-4-morpholinothieno[3,2-d]pyrimidin-2-yl)-1H-indazol-1-yl)pentanamide] | > 10000 nM | < 100 nM | 139 to 143 °C |  |  |  |  |  |  |  |  |  |  |  |  |  |  |  |  |  | 
2 | CS(=O)(=O)N1CCN(Cc2cc3nc(-c4cccc5c4cnn5CCCCCC(=O)NO)nc(N4CCOCC4)c3s2)CC1 [Compound 4] | > 10000 nM | < 100 nM | 186 to 187 °C |  |  |  |  |  |  |  |  |  |  |  |  |  |  |  |  |  | 
3 | CNc1ccc(-c2nc(N3CCOCC3)c3sc(CN(C)c4ncc(C(=O)NO)cn4)cc3n2)cn1 [Compound 111, N-Hydroxy-2-(methyl((2-(6-(methylamino)pyridin-3-yl)-4-morpholinothieno[3,2-d]pyrimidin-6-yl)methyl)amino)pyrimidine-5-carboxamide] |  | < 100 nM |  | 10 to 100 nM | 10 to 100 nM | < 10 nM | < 10 nM | < 10 nM | < 10 nM | < 10 nM | 10 to 100 nM | < 10 nM | < 10 nM | < 10 nM | 10 to 100 nM | < 10 nM | < 10 nM | 10 to 100 nM | < 10 nM | 10 to 100 nM | IC50 (RPMI-8226 cells): < 10 nM; IC50 (ARH77 cells): < 10 nM; IC50 (L1210 cells): < 10 nM; IC50 (P388 D1 cells): < 10 nM
4 | COc1ccc(-c2nc(N3CCOCC3)c3sc(CN(C)c4ncc(C(=O)NO)cn4)cc3n2)cn1 [Compound 236, N-Hydroxy-2-(((2-(6-methoxypyridin-3-yl)-4-morpholinothieno[3,2-d]pyrimidin-6-yl)methyl)(methyl)amino)pyrimidine-5-carboxamide] |  | < 100 nM |  | 10 to 100 nM | 10 to 100 nM | < 10 nM | < 10 nM | < 10 nM | < 10 nM | 10 to 100 nM | 10 to 100 nM | < 10 nM | < 10 nM | < 10 nM | 10 to 100 nM | < 10 nM | < 10 nM | 10 to 100 nM | 10 to 100 nM | 100 to 1000 nM | IC50 (MDA-MB-231 cells): 10 to 100 nM; IC50 (HCC1500 cells): < 10 nM; IC50 (UACC-893 cells): 10 to 100 nM; IC50 (MDA-MB-468 cells): 10 to 100 nM; IC50 (SUP-B15 cells): < 10 nM; IC50 (MEG-01 cells): 10 to 100 nM; IC50 (RPMI-8226 cells): < 10 nM; IC50 (ARH77 cells): 10 to 100 nM; IC50 (L1210 cells): 10 to 100 nM; IC50 (P388 D1 cells): 10 to 100 nM
